From patent EP1094711B1, “METHODS FOR ERADICATION OF NANOBACTERIA” (Nanobac Oy, priority 1998, dated 2000)
In brackets after ≈: the same amount, converted by molar mass. Read-outs that look alike come from different tables or passages of the source.

Tests used:
Type in all cases: cell-based
[1] = system: nanobacteria; test: Antibiotic sensitivity test by Minimal Inhibition Concentration (MIC), 96-well plates, absorbance at 650 nm
Experimental: Antibiotic sensitivity tests were carried out by measuring Minimal Inhibition Concentration (MIC), a common practice in clinical microbiology.
The tests were performed in 96-well plates. DMEM (commercial cell culture medium) containing 10% gamma-irradiated fetal bovine serum (FBS)(dose about 3 Mrads; this treatment inactivates nanobacteria in the serum so that the basic medium is sterile) was used as the basic culture medium. These components are commercially available, e.g., from Gibco. The antibiotic stock solutions were sterile filtered through 0.2 micrometer filters. The stock solutions were then serially diluted (into the basal culture medium) to provide a final starting concentration of 0.5 mg/ml and 1:2 dilutions therefrom, unless otherwise specified. For each antibiotic three parallel tests were performed using all the antibiotic dilutions and, additionally, positive and negative control experiments. […] 100 µl of dilutions of the nanobacteria inoculum were added to all wells except the negative controls. The plates were incubated at mammalian cell culture conditions (37° Celsius, 5% carbon dioxide, 95% humid air). The absorbance values at 650 nm were recorded by using an ELISA reader at the start, and at 4, 8, 12, 14 days. […] Calculations were based on absorbance curves where absorbance was plotted against concentration of the antibiotic.

[2] = system: nanobacteria; test: Nanobacterial growth and biofilm formation on stents with metal ions in the culture medium; conditions: salts added to the culture medium
Text: Nanobacteria also absorb some heavy metals. Nanobacteria can be stained well with silver or copper compounds. […] Silver and copper parts or platings on surfaces, such as catheters or stents, can provide an antinanobacterial effect by preventing nanobacterial biofilm formation. In in vitro tests nanobacteria avidly formed biofilm on two different commercial stents made of a plastic type of material. This biofilm formation was prevented by the addition of silver or copper salts to the culture medium.

[3] = system: SF-nanobacteria; test: Chemical disinfection of SF-nanobacteria; set-up: key to Resistance of SF-nanobacteria to chemical disinfectants (survival) / partial or total detachment on exposure: +++: No effect; ++: Reduced survival; +: Markedly reduced survival; - : No survival; * = partial or total detachment on exposure; conditions: for Resistance of SF-nanobacteria to chemical disinfectants (survival): survival after subculture compared to diluent only; for effect of chemical disinfection on SF-nanobacteria (in words): exposure at room temperature, then subculture
Text: The cultures were exposed to the disinfectants after removal of the culture medium. For the autoclaving, UV, microwave, and drying treatments, the medium was removed and an equal amount of PBS used instead. For the heat treatments, the SF-nanobacteria were harvested by scraping the culture vessel followed by centrifugation of the medium. The obtained pellet was suspended in PBS and used in the test. After treatments the SF-nanobacteria were subcultured in DMEM medium and the growth followed by light microscopy to see the adherence and typical mineralization.
The concentrations of the chemicals used were those commonly used for disinfection or as instructed by the manufacturer. The chemicals included 70% ethanol, 2% glutaraldehyde, 4% formaldehyde, 0.5% hypochlorite, 3% hydrogen peroxide, 1M hydrochloric acid (HCl), 1M sodium hydroxide (NaOH) , 1% sodium dodecyl sulfate (SDS), 1% Tween 80, 1 % Triton X-100, 3M guanidium-hydrochloride, 3M urea, 1% Virkon® (Antec International Ltd., Suffolk, England; 100% product contains 50% potassium persulfate, 5% sulfaminoic acid), 1.5% Erifenol® (Orion OY, Finland; 100% product contains <5% NaOH, <5% o-benzyl-p-chlorophenol, 5-15% p-chloro-m-cresol), 1% Klorilli® (Orion OY, Finland; 100% product contains sodium metasilicate, sodium N-chloro-p-toluenesulfonamide-3-hydrate and 20,000 ppm active chlorine), and 3% Buraton® (Schülke & Mayr, Germany; 100% product contains 4.5% formaldehyde, 6.8% glyoxal, 1.5% glyoxylic acid, 6% dimethylaurylbenzyl-ammonium chloride). The dilutions to be used were freshly prepared on the day of exposure in sterile distilled water. As a positive control, only diluent was used. Negative control contained only culture medium.
The SF-nanobacteria were exposed to the chemicals for 10 and 30 minutes at room temperature after removal of the culture medium. After exposure, the disinfectant solution was removed and fresh medium added (with a neutralization step in the case of HCl and NaOH). If any significant deattachment occurred, nanobacteria were recovered by centrifugation, and subcultured. The exposed serum-free cultures were passaged 1:10 after 48 hours and the growth was followed by light microscopy for three weeks.

[4] = light or radiation study, 288 h; 90% inhibition, 12 day time point, DMEM with 10% gamma-irradiated FBS; read-out: MIC 90
[5] = light or radiation study, 288 h; read-out: MIC 50
[6] = short chain organic acids tested later in culture tests; read-out: MIC50 values
[7] = 50% inhibition, 12 day time point, DMEM with 10% gamma-irradiated FBS
[8] = Exposure time 10 min, room temperature
[9] = Exposure time 30 min, room temperature

## O=C1CN(/N=C/c2ccc([N+](=O)[O-])o2)C(=O)N1 [Nitrofurantoin]
[1]; [4]
  IC90: 1.5 µg/mL (≈ 6.3 µM)
[1]; [5]
  IC50: 0.6 µg/mL

## NC(=O)c1cnccn1 [Pyrazinamide]
[1]; [5]
  IC50: > 500 µg/mL

## CO[C@H]1/C=C/O[C@@]2(C)Oc3c(C)c(O)c4c(O)c(c(/C=N/N5CCN(C)CC5)c(O)c4c3C2=O)NC(=O)/C(C)=C\C=C\[C@H](C)[C@H](O)[C@@H](C)[C@@H](O)[C@@H](C)[C@H](OC(C)=O)[C@@H]1C [Rifampicin]
[1]; [5]
  IC50: > 500 µg/mL

## [H]/N=C(/N)N[C@H]1[C@H](O)[C@@H](O)[C@H](O[C@@H]2O[C@@H](C)[C@](O)(C=O)[C@H]2O[C@@H]2O[C@@H](CO)[C@H](O)[C@@H](O)[C@@H]2NC)[C@@H](N/C(N)=N\[H])[C@@H]1O [Streptomycin]
[1]; in vitro MIC test
  antinanobacterial effect in the in vitro test (in words): bacteriostatic effects at high antibiotic concentrations
[1]; [5]
  IC50: > 500 µg/mL

## CN(C)[C@@H]1C(O)=C(C(N)=O)C(=O)[C@@]2(O)C(O)=C3C(=O)c4c(O)cccc4[C@@](C)(O)[C@H]3C[C@@H]12 [Tetracycline]
[1]; light or radiation study, 288 h, read-out: MIC 50
  IC50: 0.3 µg/mL
[1]; light or radiation study, 288 h, read-out: MIC 90
  IC90: 1.3 µg/mL (≈ 2.93 µM)

## COc1cc(Cc2cnc(N)nc2N)cc(OC)c1OC [Trimethoprim]
[1]; in vitro MIC test
  antinanobacterial effect in the in vitro test (in words): bacteriostatic
[1]; [4]
  IC90: 5 µg/mL (≈ 17.2 µM)
[1]; [5]
  IC50: 0.7 µg/mL

## CN[C@H](CC(C)C)C(=O)N[C@H]1C(=O)N[C@@H](CC(N)=O)C(=O)N[C@H]2C(=O)N[C@H]3C(=O)N[C@H](C(=O)N[C@H](C(=O)O)c4cc(O)cc(O)c4-c4cc3ccc4O)[C@H](O)c3ccc(c(Cl)c3)Oc3cc2cc(c3O[C@@H]2O[C@H](CO)[C@@H](O)[C@H](O)[C@H]2O[C@H]2C[C@](C)(N)[C@H](O)[C@H](C)O2)Oc2ccc(cc2Cl)[C@H]1O [Vancomycin]
[1]; in vitro MIC test
  antinanobacterial effect in the in vitro test (in words): effective bacteriostat
[1]; [4]
  IC90: 250 µg/mL (≈ 173 µM)
[1]; [5]
  IC50: 130 µg/mL

## CC1=CC(=O)c2ccccc2C1=O [Vitamin K (Menadion), Menadion]
[1]; in vitro MIC test
  antinanobacterial effect in the in vitro test (in words): toxic to nanobacteria
[1]; [5]
  IC50: 2 µg/mL

## CC(=O)O [acetic acid]
[1]; [6]
  IC50: 10 to 50 mM

## O=C1O[C@H]([C@@H](O)CO)C(O)=C1O [ascorbic acid]
[1]; [6]
  IC50: 10 to 50 mM

## [Cu] [copper]
[2]
  biofilm formation on commercial stents: prevented

## CC(O)C(=O)O (centres unmarked) [lactic acid]
[1]; [6]
  IC50: 10 to 50 mM

## Nc1ccc(C(=O)O)c(O)c1 [para-aminosalicylic acid]
[1]
  MIC value compared with acetylsalicylic acid: identical with acetylsalicylic acid

## Neomycin
[1]; [7]
  MIC 50: 16 mg/L
[1]; 90% inhibition, 12 day time point, DMEM with 10% gamma-irradiated FBS
  MIC 90: 30 mg/L
[1]; in vitro MIC test
  antinanobacterial effect in the in vitro test (in words): bacteriostatic effects at high antibiotic concentrations

## Penicillin
[1]; [7]
  MIC 50: >500 mg/L

## Polymyxin B
[1]; [7]
  MIC 50: >500 mg/L

## Triton X-100 [1 % Triton X-100]
[3]; [8]
  Resistance of SF-nanobacteria to chemical disinfectants (survival): +++
[3]; [9]
  Resistance of SF-nanobacteria to chemical disinfectants (survival): +++

## Vitamin D
[1]; 50% inhibition, 12 day time point; read-out: MIC 50
  IC50: > 0.025 mM
[1]; in vitro MIC test
  antinanobacterial effect in the in vitro test (in words): very weak inhibitory effect

## hydrochloric acid [1M HCl]
[3]; [9]
  partial or total detachment on exposure: *
  Resistance of SF-nanobacteria to chemical disinfectants (survival): ++
[3]; listed as Hydrochloric acid
  effect of chemical disinfection on SF-nanobacteria (in words): dissolved the apatite layer
[3]; listed as hydrochloric acid
  effect of chemical disinfection on SF-nanobacteria (in words): could not kill nanobacteria

## hydrogen peroxide [3% H2O2]
[3]; [8]
  Resistance of SF-nanobacteria to chemical disinfectants (survival): +++
[3]; [9]
  Resistance of SF-nanobacteria to chemical disinfectants (survival): +++

## hypochlorite [0.5% hypochlorite]
[3]; [8]
  Resistance of SF-nanobacteria to chemical disinfectants (survival): +++
[3]; [9]
  Resistance of SF-nanobacteria to chemical disinfectants (survival): +++
